# Reference: publication PMC9815933, “Computational Drug Repurposing Approach to Identify Novel Inhibitors of ILK Protein for Treatment of Esophageal Squamous Cell Carcinoma” (Journal of Oncology, 2022)
# Target: T1, integrin-linked kinase (ILK) (Homo sapiens, UniProt Q13418)
# T1 sequence (Q13418 1-452): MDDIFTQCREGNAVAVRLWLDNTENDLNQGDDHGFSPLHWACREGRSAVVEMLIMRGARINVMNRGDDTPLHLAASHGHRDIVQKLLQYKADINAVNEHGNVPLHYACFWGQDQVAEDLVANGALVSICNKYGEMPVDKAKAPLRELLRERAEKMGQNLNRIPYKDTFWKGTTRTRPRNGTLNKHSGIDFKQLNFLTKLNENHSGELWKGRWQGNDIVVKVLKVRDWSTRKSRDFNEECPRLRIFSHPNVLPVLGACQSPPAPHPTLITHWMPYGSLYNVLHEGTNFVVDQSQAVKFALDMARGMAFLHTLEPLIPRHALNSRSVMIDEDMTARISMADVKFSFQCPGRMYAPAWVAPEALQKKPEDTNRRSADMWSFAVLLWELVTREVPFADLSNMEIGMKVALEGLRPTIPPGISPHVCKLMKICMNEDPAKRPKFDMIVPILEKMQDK
# Assay: SPR (Biacore S200), ILK immobilized on CM5 chip
# Assay type: binding
row,Kd,SMILES
1,2640 nM,"COc1ccc(N=Nc2c(N)n[nH]c2N)cc1 [ILK-IN-3, reference compound]"
2,6410 nM,"Cc1cn(-c2cc(NC(=O)c3ccc(C)c(Nc4nccc(-c5cccnc5)n4)c3)cc(C(F)(F)F)c2)cn1 [d1, Nilotinib]"

row,SMILES,Kd
1,"COc1cc([C@@H]2c3cc4c(cc3[C@@H](O[C@@H]3O[C@@H]5CO[C@@H](c6cccs6)O[C@H]5[C@H](O)[C@H]3O)[C@H]3COC(=O)[C@H]23)OCO4)cc(OC)c1O [d2, Teniposide]",1790 nM
